Reference: ChEMBL document CHEMBL2150878, “Discovery of an Orally Available, Brain Penetrant BACE1 Inhibitor that Affords Robust CNS Aβ Reduction” (ACS Med Chem Lett, 2012)
Values after ≈ are worked out from the molar mass of the structure shown. One block for each compound: values may come before it.

Assays:
Rattus norvegicus [1] = assay: AUC (0 to 6 hrs) in rat at 10 mg/kg, po; assay type: ADME, organism-based, Plasma; set-up: time < 6 hr, dose 10 mg/kg, route oral; conditions: in vivo
Caco-2 = assay: Apparent permeability of the compound in human Caco2 cells; assay type: ADME, cell-based
[2] = Dissociation constant, pKa of the compound; assay type: physicochemical
[3] = Intrinsic clearance in rat hepatocytes assessed per 10^6 cells at 1 uM up to 180 mins; assay type: ADME, cell-based, Hepatocyte; conditions: read-out: CLH
[4] = Lipophilicity, log D of the compound; assay type: physicochemical; conditions: octanol/water
[5] = Solubility of the compound at pH 7.4; assay type: physicochemical; conditions: buffer
Nucleic Acid = assay: Ratio of drug level in brain to plasma in Sprague-Dawley rat at 3 mg/kg, po after 3 hrs; assay type: ADME, organism-based; set-up: dose 3 mg/kg, route oral
Rattus norvegicus [6] = assay: Terminal half life in Sprague-Dawley rat at 3 mg/kg, iv; assay type: ADME, organism-based; set-up: dose 3 mg/kg, route intravenous; conditions: in vivo
[7] = Intrinsic clearance in human hepatocytes assessed per 10^6 cells at 1 uM up to 180 mins; assay type: ADME, cell-based, Hepatocyte; conditions: read-out: CLH
Rattus norvegicus [8] = assay: Oral bioavailability in Sprague-Dawley rat at 3 mg/kg; assay type: ADME, organism-based; conditions: in vivo

- AUC (Rattus norvegicus [1]): < 1 µM·h
SMILES: CN1C(=N)N[C@](C)(c2cccc(-c3cccnc3)c2)CC1=O

- AUC (Rattus norvegicus [1]): < 1 µM·h
SMILES: COc1cccc(-c2cccc([C@]3(C)CC(=O)N(C)C(=N)N3)c2)c1

- Papp (Caco-2): 15.3 ×10⁻⁶ cm/s
- pKa [2]: 7.5
- hepatocyte CLint at 1 µM [3]: 4.9 µL/min/1e6 cells
- logD [4]: 1.8
- solubility [5]: 200 µM (≈ 74.6 µg/mL)
- BPR (Nucleic Acid): 3
- beta t1/2 (Rattus norvegicus [6]): 2.8 h
- hepatocyte CLint at 1 µM [7]: 2.7 µL/min/1e6 cells
- F (Rattus norvegicus [8]): 69%
SMILES: CC#Cc1cncc(-c2cc(Cl)c([C@]3(C)CC(=O)N(C)C(=N)N3)s2)c1

- AUC (Rattus norvegicus [1]): 8.6 µM·h
SMILES: CN1C(=N)N[C@](C)(c2cccc(-c3cccc(C#N)c3)c2)CC1=O
